The values below come from ChEMBL document CHEMBL3621138, “Aminothiazoles: Hit to lead development to identify antileishmanial agents” (Eur J Med Chem, 2015).

For orientation: Cmax means the highest concentration seen after dosing. A word on the AUC(0-t): it is exposure summed from dosing to a finite time, without extrapolation to infinity. Read a low AUC(0-t) as less exposure. By Tmax is commonly meant the time at which the peak concentration occurs. As a reminder, the bioavailability is the share of a dose that reaches the circulation, judged against a reference dose that is usually intravenous. One may read the AUC(0-inf) as total exposure, with the tail of the curve extrapolated.

Series [1] in a line: Metabolic stability in golden Syrian hamster liver microsomes assessed as drug metabolism at 0.5 uM incubated for 30 mins in presence of NADPH. The series is classed as ADME, Mesocricetus auratus. The note with it: read-out: Drug metabolism. A general note: Microsomes from liver hold many membrane-bound enzymes, among them those of drug oxidation.
A short description of series [2]: Metabolic stability in CD1 mouse liver microsomes assessed as drug metabolism at 0.5 uM incubated for 30 mins in presence of NADPH. The series is classed as ADME. The settings on record: read-out: Drug metabolism.
A short description of series [3]: Cmax in Swiss Albino mouse at 50 mg/kg, po by LC-MS/MS method. The series is classed as ADME, organism-based. Further details: dose 50 mg/kg, route oral. The settings on record: in vivo.
Series [4] can be described thus: AUClast in Swiss Albino mouse at 50 mg/kg, po by LC-MS/MS method. The settings on record: in vivo. Further details: dose 50 mg/kg, time 0 - last, route oral. The series is classed as ADME, organism-based.
Series [5] can be described thus: Tmax in Swiss Albino mouse at 50 mg/kg, po by LC-MS/MS method. The series is classed as ADME, organism-based. The note with it: in vivo.
Series [6] can be described thus: Tmax in Swiss Albino mouse at 25 mg/kg, po by LC-MS/MS method. The series is classed as ADME, organism-based. The settings on record: in vivo.
The nature of series [7]: Oral bioavailability in Swiss Albino mouse at 1 mg/kg by LC-MS/MS method. Format: ADME, organism-based. The note with it: in vivo.
A short description of series [8]: Volume of distribution at steady state in Swiss Albino mouse at 1 mg/kg, iv by LC-MS/MS method. The series is classed as ADME, organism-based. The settings on record: in vivo, read-out: Vdss.
A short description of series [9]: AUClast in Swiss Albino mouse at 1 mg/kg, iv by LC-MS/MS method. Format: ADME, organism-based. On the set-up: dose 1 mg/kg, route intravenous, time 0 - last. The note with it: in vivo.
Series [10] is described as follows: AUC (infinity) in Swiss Albino mouse at 1 mg/kg, iv by LC-MS/MS method. The series is classed as ADME, organism-based. Further details: dose 1 mg/kg, time infinity, route intravenous. The note with it: in vivo.
Series [11] in a line: AUC (infinity) in Swiss Albino mouse at 25 mg/kg, po by LC-MS/MS method. The note with it: in vivo. The series is classed as ADME, organism-based. On the set-up: dose 25 mg/kg, time infinity, route oral.
The nature of series [12]: Cmax in Swiss Albino mouse at 25 mg/kg, po by LC-MS/MS method. Format: ADME, organism-based. Further details: dose 25 mg/kg, route oral. The note with it: in vivo.
Series [13] in a line: AUClast in Swiss Albino mouse at 25 mg/kg, po by LC-MS/MS method. Format: ADME, organism-based. On the set-up: dose 25 mg/kg, route oral, time 0 - last. The note with it: in vivo.
Series [14] is described as follows: Terminal half-life in Swiss Albino mouse at 1 mg/kg, iv by LC-MS/MS method. The note with it: in vivo, read-out: beta t1/2 (converted). The series is classed as ADME, organism-based.
A short description of series [15]: Cmax in Swiss Albino mouse at 1 mg/kg, iv by LC-MS/MS method. Format: ADME, organism-based. On the set-up: dose 1 mg/kg, route intravenous. The settings on record: in vivo.
Series [16] in a line: Clearance in Swiss Albino mouse at 1 mg/kg, iv by LC-MS/MS method. Format: ADME, organism-based. The settings on record: in vivo, read-out: CLH.

SMILES strings stand for the structures.

As for `COc1cccc(-c2csc(Nc3ccc(Cl)cn3)n2)n1`, the results for the metabolised at 0.5 h, 0.5 µM in [1] and in series [2] were 100% and 75%, respectively.

Consider `Cc1ccc(Nc2nc(-c3ccccn3)cs2)cc1C`, for which the metabolised at 0.5 h, 0.5 µM in series [1] and in series [2] was 100% in each case.

Regarding `CCOc1ccc(-c2nc(Nc3ccc(Cl)cn3)sc2Cl)nc1`, the metabolised at 0.5 h, 0.5 µM is 87% in series [1] and 56% in [2].

Regarding `Cc1ccc(Nc2nc(-c3ccccn3)cs2)nc1`, the metabolised at 0.5 h, 0.5 µM in series [1] and in series [2] was 100% throughout.

As for `Clc1ccc(Nc2nc(-c3cccnn3)cs2)nc1`, the metabolised at 0.5 h, 0.5 µM in series [1] was 99%; in [2], 95%.

Regarding `Cc1ccnc(Nc2nc(-c3ccccn3)cs2)c1`, the metabolised at 0.5 h, 0.5 µM in [1] and in [2] was 99% in each case.

As to `COc1ccnc(-c2csc(Nc3ccc(Cl)cn3)n2)c1`, the results for the metabolised at 0.5 h, 0.5 µM in series [1] and in [2] were 100% and 97%, respectively.

Regarding `CN(C)c1ccc(Nc2nc(-c3ccccn3)cs2)cc1`, the metabolised at 0.5 h, 0.5 µM in series [1] stood at 99%; in series [2] it was 98%.

Regarding `COc1ccnc(-c2nc(Nc3ccc(Cl)cn3)sc2Cl)c1`, the values for the metabolised at 0.5 h, 0.5 µM in series [1] and in series [2] were 100% and 90%, respectively.

In the case of `FC(F)(F)c1ccc(-c2nc(Nc3ccc(Cl)cn3)sc2Cl)nc1`, the metabolised at 0.5 h, 0.5 µM in series [1] was 63%; in series [2], 30%.

In series [3], `Cc1ccc(Nc2nc(-c3ccccn3)cs2)cc1` had a Cmax of 108 ng/mL. In addition, the AUC(0-t) in series [4] was 99.8 ng·h/mL. Also, the Tmax in [5] came out at 15 min. The metabolised at 0.5 h, 0.5 µM in [1] and in [2] was 100% each time.

As for `FC(F)(F)c1ccc(-c2csc(Nc3ccc(Cl)cn3)n2)nc1`, the metabolised at 0.5 h, 0.5 µM amounted to 98% in series [1] and 63% in series [2].

Turning to `Clc1ccc(Nc2nc(-c3cnccn3)c(Cl)s2)nc1`, the metabolised at 0.5 h, 0.5 µM in [1] was 78%; in series [2], 47%.

Consider `COc1ccc(Nc2nc(-c3cccnc3)cs2)cc1`, for which the metabolised at 0.5 h, 0.5 µM in [1] and in series [2] was 96% each time.

Consider `Clc1ccc(Nc2nc(-c3ncccn3)c(Cl)s2)nc1`, for which the metabolised at 0.5 h, 0.5 µM in [1] was 99%; in series [2], 71%.

On to `c1ccc(-c2csc(Nc3ccc4c(c3)OCCO4)n2)nc1`, for which the results for the metabolised at 0.5 h, 0.5 µM in series [1] and in series [2] were 100% and 99%, respectively.

As to `COc1ccc(Nc2nc(-c3ccccn3)cs2)nc1`, the metabolised at 0.5 h, 0.5 µM in [1] was found to be 99%; in [2], 100%.

Regarding `Clc1ccc(Nc2nc(-n3cccn3)cs2)nc1`, the metabolised at 0.5 h, 0.5 µM in series [1] and in series [2] was 100% throughout.

As to `COc1ccc(Nc2nc(-c3ccccn3)cs2)cc1OC`, the metabolised at 0.5 h, 0.5 µM in [1] and in series [2] was 100% throughout.

As to `c1ccc(Nc2nc(-c3ccccn3)cs2)nc1`, the metabolised at 0.5 h, 0.5 µM in series [1] and in [2] was 100% throughout.

For the compound `Clc1ccc(Nc2nc(-c3ccccn3)c(Cl)s2)nc1`, the results for the metabolised at 0.5 h, 0.5 µM in series [1] and in series [2] were 100% and 93%, respectively.

For the compound `Clc1ccc(Nc2nc(-c3cnccn3)cs2)nc1`, the metabolised at 0.5 h, 0.5 µM in series [1] and in series [2] was 99% in each case.

Consider `Cc1cccc(Nc2nc(-c3ccccn3)cs2)n1`, for which the metabolised at 0.5 h, 0.5 µM in series [1] and in series [2] was 100% each time.

Take `CCOc1ccc(-c2csc(Nc3ccc(Cl)cn3)n2)nc1`: the Tmax in series [6] worked out at 15 min. Besides, the bioavailability in [7] turned out to be 8%. Besides, the Vd in series [8] was 1.99 L/kg. Moreover, the AUC(0-t) in series [9] stood at 178 ng·h/mL; in [13], 362 ng·h/mL. Moreover, the total exposure AUC(0-inf) in [10] amounted to 183 ng·h/mL; in series [11] it was 377 ng·h/mL. The Cmax in [12] is 167 ng/mL; in series [15], 885 ng/mL. In addition, the half-life in series [14] was 28.8 min. In addition, the metabolised at 0.5 h, 0.5 µM came out at 10% in series [1] and 62% in series [2]. Further, in [16], the clearance is 91 mL/min/kg.

Turning to `Clc1ccc(Nc2nc(-c3cccnn3)c(Cl)s2)nc1`, the figures for the metabolised at 0.5 h, 0.5 µM in [1] and in series [2] were 99% and 70%, respectively.

`COc1ccc(Nc2nc(-c3ncccn3)cs2)cc1`: the metabolised at 0.5 h, 0.5 µM in [1] was found to be 81%; in [2] it was 99%.

Turning to `COc1ccc(Nc2nc(-c3ccncc3)cs2)cc1`, the metabolised at 0.5 h, 0.5 µM in [1] amounted to 98%; in series [2] it was 83%.

Regarding `Cc1cccnc1Nc1nc(-c2ccccn2)cs1`, the metabolised at 0.5 h, 0.5 µM in series [1] and in series [2] was 100% each time.

`Clc1ccc(Nc2nc(-c3ncccn3)cs2)nc1`: the metabolised at 0.5 h, 0.5 µM turned out to be 100% in series [1] and 99% in series [2].

Turning to `COc1ccc(-c2csc(Nc3ccc(Cl)cn3)n2)nc1`, the metabolised at 0.5 h, 0.5 µM in series [1] was 100%; in [2], 97%.

Consider `COc1ccc(-c2nc(Nc3ccc(Cl)cn3)sc2Cl)nc1`, for which the metabolised at 0.5 h, 0.5 µM in series [1] was found to be 100%; in series [2] it was 92%.

For `COc1ccc(Nc2nc(-c3ccccn3)cs2)cc1`, the metabolised at 0.5 h, 0.5 µM in series [1] and in [2] was 100% in each case.

Take `Clc1ccc(Nc2nc(-c3ccccn3)cs2)nc1`: the metabolised at 0.5 h, 0.5 µM in [1] and in series [2] was 100% each time.
